{
  "source": "patent US20220288231A1",
  "about": "“METHODS AND COMPOSITIONS FOR REDUCING GENE OR NUCLEIC ACID THERAPY-RELATED IMMUNE RESPONSES” (Generation Bio Co., priority 2019, published 2022)",
  "key": {"THP1-ISG cells": {"tested_on": "THP1-ISG cells", "assay": "THP1-ISG cell viability assay (ATP activity and LDH release)", "conditions": "10 μM, 1.0 μM and 0.1 μM; 24 hours"}, "[1]": {"assay": "In vivo tolerability and body weight with TKI and ceDNA", "parameters": "species or system mice", "description": "The immunosuppressant selected for initial in vivo cytokine/chemokine panel assays were afatinib, brigatinib, dacomitinib, dasatinib, saracatinib, fostamatinib, cerdulatinib, ruxolitinib, and cobimetinib. […] The high and low dose concentrations immunosuppressants are as follows: afatinib (H: 200 mg/kg/day; L: 25 mg/kg/day), brigatinib (H: 50 mg/kg/day; L: 10 mg/kg/day), dacomitinib (H: 30 mg/kg/day; L: 10 mg/kg/day), dasatinib (H: 30 mg/kg/day; L: 10 mg/kg/day), saracatinib (H: 50 mg/kg/day; L: 10 mg/kg/day), fostamatinib (H: 500 mg/kg/day; L: 100 mg/kg/day), cerdulatinib (H: 30 mg/kg/day; L: 5 mg/kg/day), ruxolitinib (H: 300 mg/kg/day; L: 60 mg/kg/day) and cobimetinib (H: 10 mg/kg/day; L: 3 mg/kg/day). Formulations were mixed by pipetting prior to administration to distribute particulates of oral gavage suspension. TKI or vehicle for Groups 3-24 were dosed on Days -2, -1, 0 and 1 by oral gavage at 10 mL/kg. TKI for Group 25 were dosed on Days -2, -1, 0 and 1 by oral gavage at 20 mL/kg. TKI for Group 26 was dosed on Days -2, -1, 0 and 1 by intraperitoneal (IP) administration at 20 mL/kg. […] Otherwise, TKIs were administered at approximately the same time each day ([…] dosed at 0.2 mg/kg on Day 0 for all experimental groups by intravenous administration via lateral tail vein. […] Polycytidylic acid potassium salt (PolyC) and […] […] Body weights for all animal were recorded."}, "[2]": {"tested_on": "immune response to ceDNA (Construct A: hAAT-Luciferase)", "assay": "ceDNA dose escalation study with TKI", "assay_type": "in vivo", "conditions": "2 mg/kg ceDNA formulated in LNP; ruxolitinib 300 mg/kg", "description": "An in vivo study with dose escalation of ceDNA was conducted to evaluate the effect of ceDNA at a high dose in the presence of the TKI (ruxolitinib at a high dose of 300 mg/kg and fostamatinib at a high dose of 500 mg/kg). In this study, four experimental groups were dosed with increasing doses of 0.2 mg/kg, 0.5 mg/kg, 1 mg/kg, or 2 mg/kg of ceDNA (Construct A: hAAT-Luciferase) formulated in LNPs."}, "[3]": {"tested_on": "IRF-inducible luciferase reporter in RAW-ISG cells", "assay": "IFN reporter assay in RAW-ISG cells", "assay_type": "cell-based, murine", "conditions": "for inhibitory effects on murine ISG system / induction of IRF: 0.1 μM, 1.0 μM and 10 μM, ceDNA", "description": "Finally, IFN reporter assays were conducted in RAW-ISG cells. RAW-ISG cells are generated from the murine macrophage cell line by stable integration of an interferon regulatory factor (IRF)-inducible luciferase reporter construct. […] Another potent TKI compound selected for this assay was BMS-986165 which is a known antagonist of TYK2."}, "[4]": {"tested_on": "serum proinflammatory cytokines and chemokines in response to ceDNA", "assay": "In vivo cytokine/chemokine panel after ceDNA (Construct A) dosing", "parameters": "species or system mice", "conditions": "for serum IP-10 level: repeat experiment; for cytokines expression after ceDNA dosing: LNP: Construct A at 0.2 mg/Kg", "description": "The immunosuppressant selected for initial in vivo cytokine/chemokine panel assays were afatinib, brigatinib, dacomitinib, dasatinib, saracatinib, fostamatinib, cerdulatinib, ruxolitinib, and cobimetinib. […] The high and low dose concentrations immunosuppressants are as follows: afatinib (H: 200 mg/kg/day; L: 25 mg/kg/day), brigatinib (H: 50 mg/kg/day; L: 10 mg/kg/day), dacomitinib (H: 30 mg/kg/day; L: 10 mg/kg/day), dasatinib (H: 30 mg/kg/day; L: 10 mg/kg/day), saracatinib (H: 50 mg/kg/day; L: 10 mg/kg/day), fostamatinib (H: 500 mg/kg/day; L: 100 mg/kg/day), cerdulatinib (H: 30 mg/kg/day; L: 5 mg/kg/day), ruxolitinib (H: 300 mg/kg/day; L: 60 mg/kg/day) and cobimetinib (H: 10 mg/kg/day; L: 3 mg/kg/day). Formulations were mixed by pipetting prior to administration to distribute particulates of oral gavage suspension. TKI or vehicle for Groups 3-24 were dosed on Days -2, -1, 0 and 1 by oral gavage at 10 mL/kg. TKI for Group 25 were dosed on Days -2, -1, 0 and 1 by oral gavage at 20 mL/kg. TKI for Group 26 was dosed on Days -2, -1, 0 and 1 by intraperitoneal (IP) administration at 20 mL/kg. […] Otherwise, TKIs were administered at approximately the same time each day ([…] dosed at 0.2 mg/kg on Day 0 for all experimental groups by intravenous administration via lateral tail vein. Animals were monitored continuously while under anesthesia, during recovery and until mobile. […] Polycytidylic acid potassium salt (PolyC) and […] (Construct A) were used as controls. […] Body weights for all animal were recorded."}, "immune response to ceDNA": {"tested_on": "immune response to ceDNA", "assay_type": "in vivo, mice", "conditions": "−0.5 h and 5 h regimen compared to −48 hr, −24 h, −1.5 h and 24 h regimen; 300 mg/kg", "text": "FIG. 14 depicts two different dosing time arrangements of TKI treatment. […]. […]"}, "[5]": {"tested_on": "luciferase expression of ceDNA (Construct A)", "assay": "In-life imaging (IVIS) of ceDNA luciferase expression", "assay_type": "in vivo, mice", "conditions": "day 6; compared among TKI groups", "description": "Expression levels of ceDNA as detected by luciferase (IVIS for luciferase) was measured at day 6, 14, 21, 28, and 35 in all groups (FIG. 8). Polycytidylic acid potassium salt (PolyC) and […] ceDNA (Construct A) were used as controls. Both polyC and Construct A were formulated in LNP and used as controls for in groups in which no ceDNA was dosed to evaluate the effect of LNPs. Body weights for all animal were recorded."}, "[6]": {"conditions": "0.2 mg/kg ceDNA, blood 6 hours post dose"}, "[7]": {"conditions": "high dose of TKI with Construct A:LNP vehicle"}},
  "note": "Entries after “also recorded” stand apart in the source; their conditions may differ. Counter-ions that a name gives are not always drawn.",
  "data": [
    {"molecule": "Cl.Cn1cc(-c2nc(N[C@@H]3CCCC[C@@H]3N)c(F)c3c2C(=O)NC3)cn1", "note": "[TAK-659]", "values": [
      {"measurement": "toxicity in vitro (ATP activity)", "setting": "THP1-ISG cells", "result": "mostly non-toxic"}
    ]},
    {"molecule": "CCN(CC)CCNC(=O)c1c(C)[nH]c(/C=C2\\C(=O)Nc3ccc(F)cc32)c1C", "note": "[sunitinib, Sunitinib]", "values": [
      {"measurement": "toxicity in vitro (ATP activity)", "setting": "THP1-ISG cells", "result": "mostly non-toxic"}
    ]},
    {"molecule": "CN(C)C/C=C/C(=O)Nc1cc2c(Nc3ccc(F)c(Cl)c3)ncnc2cc1O[C@H]1CCOC1", "note": "[afatinib, Afatinib/ Afatinib Dimaleate]", "values": [
      {"measurement": "body loss", "setting": "[1]; with ceDNA, particularly at a high dose", "result": "7-8%"}
    ]},
    {"molecule": "N#CC[C@H](C1CCCC1)n1cc(-c2ncnc3[nH]ccc23)cn1", "note": "[ruxolitinib, Ruxolitinib/ Ruxolitinib phosphate/ S-ruxolitinib]", "values": [
      {"measurement": "body weight change", "setting": "[1]; TKI with 0.2 mg/kg ceDNA", "result": "a certain level of weight gains"},
      {"measurement": "tolerability", "setting": "[2]", "result": "well tolerated"},
      {"measurement": "inhibitory effects, ranking among more than 30 compounds tested", "setting": "[3]", "result": "most significant inhibitory effects"},
      {"measurement": "inhibitory effects on murine ISG system / induction of IRF", "setting": "[3]", "result": "significant inhibitory effects"},
      {"measurement": "serum MCP-1 level", "setting": "[4]; 0.2 mg/kg ceDNA", "result": "significant reduction"},
      {"measurement": "serum MIP-1α (CCL3) level", "setting": "[4]; 0.2 mg/kg ceDNA", "result": "significant reduction"},
      {"measurement": "serum MIP-1β (CCL4) level", "setting": "[4]; 0.2 mg/kg ceDNA", "result": "significant reduction"},
      {"measurement": "serum Rantes (CCL5) level", "setting": "[4]; 0.2 mg/kg ceDNA", "result": "significant reduction"},
      {"measurement": "suppressing cytokines and chemokine levels", "setting": "[4]; 0.2 mg/kg ceDNA", "result": "stood out"},
      {"measurement": "type I and type II IFNs responses", "setting": "[4]; 0.2 mg/kg ceDNA", "result": "effectively attenuated"},
      {"measurement": "serum interferon-α (IFN-α) level", "setting": "[4]; [6]", "result": "significant reductions; also recorded: successfully exerted immunosuppressive effects"},
      {"measurement": "serum interferon-γ (IFN-γ) level", "setting": "[4]; [6]", "result": "significant reductions; also recorded: successfully exerted immunosuppressive effects"},
      {"measurement": "serum interleukin-6 (IL-6) level", "setting": "[4]; [6]", "result": "significant reductions; also recorded: successfully exerted immunosuppressive effects"},
      {"measurement": "serum interleukin-18 (IL-18) level", "setting": "[4]; [6]", "result": "significant reductions; also recorded: successfully exerted immunosuppressive effects"},
      {"measurement": "serum level", "setting": "[4]; [6]", "result": "significant reductions"},
      {"measurement": "serum tumor necrosis factor-α (TNF-α) level", "setting": "[4]; [6]", "result": "significant reductions; also recorded: successfully exerted immunosuppressive effects"},
      {"measurement": "serum IP-10 level", "setting": "[4]; 0.2 mg/kg ceDNA", "result": "successfully exerted immunosuppressive effects"},
      {"measurement": "cytokines expression after ceDNA dosing", "setting": "[4]", "result": "drastically reduce"},
      {"measurement": "serum IFN-α level", "setting": "[4]; [7]", "result": "no detectable"},
      {"measurement": "serum IFN-γ level", "setting": "[4]; [7]", "result": "no detectable"},
      {"measurement": "serum IL-6 level", "setting": "[4]; [7]", "result": "no detectable"},
      {"measurement": "immunosuppression", "setting": "immune response to ceDNA", "result": "improved immunosuppression"},
      {"measurement": "ceDNA transgene expression levels", "setting": "[5]", "result": "highest level"}
    ]},
    {"molecule": "[2H]C([2H])([2H])NC(=O)c1nnc(NC(=O)C2CC2)cc1Nc1cccc(-c2ncn(C)n2)c1OC", "note": "[BMS-986165, BMS986165 Tyk2-IN-4]", "values": [
      {"measurement": "inhibitory effects, ranking among more than 30 compounds tested", "setting": "[3]", "result": "most significant inhibitory effects"},
      {"measurement": "inhibitory effects on murine ISG system / induction of IRF", "setting": "[3]", "result": "significant inhibitory effects"}
    ]},
    {"molecule": "Cc1ccc(NC(=O)c2ccc(CN3CCN(C)CC3)cc2)cc1Nc1nccc(-c2cccnc2)n1", "note": "[imatinib, Imatinib/ Imatinib mesylate]", "values": [
      {"measurement": "toxicity in vitro (ATP activity)", "setting": "THP1-ISG cells", "result": "mostly non-toxic"}
    ]},
    {"molecule": "c1cn2cc(-c3ccc4cn[nH]c4c3)nc(Nc3ccc(N4CCOCC4)cc3)c2n1", "note": "[entoplestinib, Entosplestinib]", "values": [
      {"measurement": "toxicity in vitro (ATP activity)", "setting": "THP1-ISG cells", "result": "mostly non-toxic"}
    ]},
    {"molecule": "CNC(=O)c1cc(Oc2ccc(NC(=O)Nc3ccc(Cl)c(C(F)(F)F)c3)cc2)ccn1", "note": "[sorafinib, Sorafenib]", "values": [
      {"measurement": "toxicity in vitro (ATP activity)", "setting": "THP1-ISG cells", "result": "mostly non-toxic"}
    ]},
    {"molecule": "COc1cc(Nc2ncc(F)c(Nc3ccc4c(n3)N(COP(=O)(O)O)C(=O)C(C)(C)O4)n2)cc(OC)c1OC", "note": "[fostamatinib, Fostamatinib/ Fostamatinib disodium]", "values": [
      {"measurement": "inhibitory effects, ranking among more than 30 compounds tested", "setting": "[3]", "result": "most significant inhibitory effects"},
      {"measurement": "inhibitory effects on murine ISG system / induction of IRF", "setting": "[3]", "result": "significant inhibitory effects"},
      {"measurement": "suppressing cytokines and chemokine levels", "setting": "[4]; 0.2 mg/kg ceDNA", "result": "stood out"},
      {"measurement": "type I and type II IFNs responses", "setting": "[4]; 0.2 mg/kg ceDNA", "result": "effectively attenuated"},
      {"measurement": "serum interferon-α (IFN-α) level", "setting": "[4]; [6]", "result": "successfully exerted immunosuppressive effects"},
      {"measurement": "serum interferon-γ (IFN-γ) level", "setting": "[4]; [6]", "result": "successfully exerted immunosuppressive effects"},
      {"measurement": "serum interleukin-6 (IL-6) level", "setting": "[4]; [6]", "result": "successfully exerted immunosuppressive effects"},
      {"measurement": "serum interleukin-18 (IL-18) level", "setting": "[4]; [6]", "result": "successfully exerted immunosuppressive effects"},
      {"measurement": "serum tumor necrosis factor-α (TNF-α) level", "setting": "[4]; [6]", "result": "successfully exerted immunosuppressive effects"},
      {"measurement": "serum IP-10 level", "setting": "[4]; 0.2 mg/kg ceDNA", "result": "successfully exerted immunosuppressive effects"},
      {"measurement": "cytokines expression after ceDNA dosing", "setting": "[4]", "result": "drastically reduce"}
    ]}
  ]
}
